Positions count from the first letter of the chain named. Entries after “also recorded” stand apart in the source; their conditions may differ.
Assays:
WT TALK-2 channels [1] = biological target: T1, WT TALK-2 channels (Homo sapiens, UniProt Q96T54); assay: Pore blocker inhibition (dose-response, residual currents) in inside-out patches at +40 mV; type: cell-based; set-up: expressed in transfected cells; host or cells: Xenopus laevis oocytes (cRNA injection), excised inside-out patches; settings: for blocker inhibition upon activation by 2-APB: 2-APB pre-activated
T1 sequence (Q96T54 1-332): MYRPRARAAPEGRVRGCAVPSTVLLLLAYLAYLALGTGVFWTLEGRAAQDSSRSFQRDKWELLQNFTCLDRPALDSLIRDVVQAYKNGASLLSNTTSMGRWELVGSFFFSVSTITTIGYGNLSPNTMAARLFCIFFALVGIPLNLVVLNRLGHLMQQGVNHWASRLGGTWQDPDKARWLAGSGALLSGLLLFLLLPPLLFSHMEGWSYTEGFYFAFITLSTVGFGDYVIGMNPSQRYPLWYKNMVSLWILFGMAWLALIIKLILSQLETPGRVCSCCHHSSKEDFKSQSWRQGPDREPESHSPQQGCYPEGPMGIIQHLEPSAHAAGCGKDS
Description: (§1) Data shown are the mean ± s.e.m and the number (n) of independent experiments and repeats of representative measurements with similar results is indicated in the figure.
(§2) Electrophysiological recordings: Excised patch measurements in inside-out configuration under voltage-clamp conditions were performed at room temperature (22 – 24 °C). Patch pipettes were made from thick-walled borosilicate glass GB 200TF-8P (Science Products, Germany), had resistances of 0.2–0.5 MΩ (tip diameter of 10 - 25 µm) and filled with a pipette solution (in mM): 120 KCl, 10 HEPES and 3.6 CaCl2 (pH 7.0 - 8.5 adjusted with KOH/HCl) or 120 KCl, 10 AMPSO and 3.6 CaCl2 (pH 9.0 - 10.5 adjusted with KOH/HCl). Intracellular bath solutions and compounds were applied to the cytoplasmic side of excised patches for the various K^+ channels via a gravity flow multi-barrel pipette system. Intracellular solution had the following composition (in mM): 120 KCl, 10 HEPES, 2 EGTA and 1 Pyrophosphate (pH adjusted with KOH/HCl). In other intracellular bath solutions, K^+ was replaced by Rb^+ (pH 7.4 adjusted with RbOH/HCl). Currents were recorded with an EPC10 amplifier (HEKA electronics, Germany) and sampled at 10 kHz or higher and filtered with 3 kHz (-3 dB) or higher as appropriate for sampling rate.
(§3) Data analysis and statistics were done using Fitmaster (HEKA electronics, version: v2x73.5, Germany), Microsoft Excel 2021 (Microsoft Corporation, USA), and Igor Pro 9 software (WaveMetrics Inc., USA). Recorded currents were analyzed from stable membrane patches at a voltage defined in the respective figure legend or with a voltage protocol as indicated in the respective figure. […] Percentage inhibition or residual currents upon blocker application for a ligand (drug or bioactive lipid) was calculated from stable currents of excised membrane patches using the following Eqs. 2 and 3:2 %inhibition=1−Iinhibited/Ibasal*100 3 Residual current=100−%inhibition where Iinhibited refers to the stable current level recorded in the presence of a given concentration of a drug or bioactive lipid and Ibasal to the measured current before ligand application.

[2] = biological target: T2, TALK-2 L264A mutant channels (Homo sapiens, UniProt Q96T54, L264A); assay: as above; type: cell-based; set-up: expressed in transfected cells; host or cells: Xenopus laevis oocytes (cRNA injection), excised inside-out patches; settings: TALK-2 L264A
T2 sequence (Q96T54 1-332 L264A): T1 sequence (Q96T54 1-332) with L264A
Description: as §1, §2, §3

[3] = biological target: T3, WT TALK-2 channels (human K2P17.1) (Homo sapiens, UniProt Q96T54); assay: Inside-out patch-clamp, ligand activation of channel currents at +40 mV (oocytes)
T3 sequence (Q96T54 1-332): T1 sequence (Q96T54 1-332)
Description: Oocytes were surgically removed from anesthetized adult females, treated with type II collagenase (Sigma-Aldrich/Merck, Germany) and manually defolliculated. 50 nl of a solution containing the K^+ channel specific cRNA was injected into Dumont stage V - VI oocytes and subsequently incubated at 17 °C in a solution containing (mM): 54 NaCl, 30 KCl, 2.4 NaHCO3, 0.82 MgSO4 x 7 H2O, 0.41 CaCl2, 0.33 Ca(NO3)2 x 4 H2O and 7.5 TRIS (pH 7.4 adjusted with NaOH/HCl) for 1–7 days before use. Electrophysiological recordings: Excised patch measurements in inside-out configuration under voltage-clamp conditions were performed at room temperature (22 – 24 °C). […] Intracellular bath solutions and compounds were applied to the cytoplasmic side of excised patches for the various K^+ channels via a gravity flow multi-barrel pipette system. Intracellular solution had the following composition (in mM): 120 KCl, 10 HEPES, 2 EGTA and 1 Pyrophosphate (pH adjusted with KOH/HCl). In other intracellular bath solutions, K^+ was replaced by Rb^+ (pH 7.4 adjusted with RbOH/HCl). Currents were recorded with an EPC10 amplifier (HEKA electronics, Germany) and sampled at 10 kHz or higher and filtered with 3 kHz (-3 dB) or higher as appropriate for sampling rate.
Recorded currents were analyzed from stable membrane patches at a voltage defined in the respective figure legend or with a voltage protocol as indicated in the respective figure. The fold activation (fold change in (tail) current amplitude) of a ligand (drug or bioactive lipid) was calculated from Eq. 1:1 Fold activationFA=Iactivated/Ibasal where Iactivated represents the stable current level in the presence of a given concentration of a respective ligand and Ibasal the measured current before ligand application. Percentage inhibition or residual currents upon blocker application for a ligand (drug or bioactive lipid) was calculated from stable currents of excised membrane patches using the following Eqs. 2 and 3:2 %inhibition=1−Iinhibited/Ibasal*100 3 Residual current=100−%inhibition where Iinhibited refers to the stable current level recorded in the presence of a given concentration of a drug or bioactive lipid and Ibasal to the measured current before ligand application. The macroscopic half-maximal concentration-inhibition relationship of a ligand was obtained using a Hill-fit for dose-response curves as depicted in Eq. 4:4 %inhibition/activation=Ibase+Imax−Ibase/1+x1/2/x^rate where base and max are the currents in the absence and presence of a respective ligand, x is the concentration of the ligand, x1/2 is the ligand concentration at which the activatory or inhibitory effect is half-maximal, rate is the Hill coefficient.

WT TALK-2 channels [4] = biological target: T1, WT TALK-2 channels; assay: Cysteine modification assay with MTS-ET, control (inside-out patch); settings: basal state or activated with 2-APB or oleoyl-CoA; 1.0 mM MTS-ET
Description: To investigate the latter, we utilized a cysteine modification assay.
Oocytes were surgically removed from anesthetized adult females, treated with type II collagenase (Sigma-Aldrich/Merck, Germany) and manually defolliculated. 50 nl of a solution containing the K^+ channel specific cRNA was injected into Dumont stage V - VI oocytes and subsequently incubated at 17 °C in a solution containing (mM): 54 NaCl, 30 KCl, 2.4 NaHCO3, 0.82 MgSO4 x 7 H2O, 0.41 CaCl2, 0.33 Ca(NO3)2 x 4 H2O and 7.5 TRIS (pH 7.4 adjusted with NaOH/HCl) for 1–7 days before use. Electrophysiological recordings: Excised patch measurements in inside-out configuration under voltage-clamp conditions were performed at room temperature (22 – 24 °C). […] Currents were recorded with an EPC10 amplifier (HEKA electronics, Germany) and sampled at 10 kHz or higher and filtered with 3 kHz (-3 dB) or higher as appropriate for sampling rate.
Data analysis and statistics were done using Fitmaster (HEKA electronics, version: v2x73.5, Germany), Microsoft Excel 2021 (Microsoft Corporation, USA), and Igor Pro 9 software (WaveMetrics Inc., USA). Recorded currents were analyzed from stable membrane patches at a voltage defined in the respective figure legend or with a voltage protocol as indicated in the respective figure.

[5] = biological target: T4, WT TREK-2 channels (human K2P10.1) (Homo sapiens, UniProt P57789); assay: Tail current deactivation kinetics with pore blocker (inside-out patch); type: cell-based; settings: intracellular Rb+ without blocker
T4 construct: expressed in transfected cells; host or cells: Xenopus laevis oocytes (cRNA injection), excised inside-out patches
T4 sequence (P57789 1-538): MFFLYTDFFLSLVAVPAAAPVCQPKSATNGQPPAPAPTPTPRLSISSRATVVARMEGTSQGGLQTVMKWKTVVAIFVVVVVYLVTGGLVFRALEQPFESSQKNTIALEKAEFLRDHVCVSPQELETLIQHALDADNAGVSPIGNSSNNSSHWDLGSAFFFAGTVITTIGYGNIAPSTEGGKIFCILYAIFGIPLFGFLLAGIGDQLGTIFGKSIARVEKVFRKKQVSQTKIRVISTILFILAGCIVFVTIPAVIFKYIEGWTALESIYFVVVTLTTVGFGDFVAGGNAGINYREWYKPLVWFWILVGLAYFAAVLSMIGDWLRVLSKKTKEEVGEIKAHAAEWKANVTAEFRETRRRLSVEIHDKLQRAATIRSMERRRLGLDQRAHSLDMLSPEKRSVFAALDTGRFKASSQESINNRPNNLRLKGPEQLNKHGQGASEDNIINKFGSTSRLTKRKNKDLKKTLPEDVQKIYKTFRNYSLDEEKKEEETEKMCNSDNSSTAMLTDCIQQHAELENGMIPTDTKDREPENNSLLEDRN

WT TALK-2 channels [6] = biological target: T1, WT TALK-2 channels; assay: as above; type: cell-based; set-up: expressed in transfected cells; host or cells: Xenopus laevis oocytes (cRNA injection), excised inside-out patches; settings: intracellular Rb+ without blocker; step to +100 mV, repolarization to -80 mV
Excerpt: In voltage-gated K^+ (Kv) channels, the closing of the lower gate can be prevented by the binding of blockers such as tetra-pentyl-ammonium (TPenA) in the pore cavity and, thereby, causing a slowing of the deactivation kinetics which is known as the ‘foot in the door’ effect[33],[34]. To test for such a mechanism in TALK-2, we activated the channels with a voltage step to +100 mV in the presence of intracellular Rb^+ followed by a repolarization step to -80 mV (to induce tail currents) with and without the K2P channel pore blocker TPenA. […] We hypothesize, that the two gates are strongly coupled and, therefore, opening the SF gate by depolarization should also open the lower gate, which then consequently would allow blocker (like TPenA) binding within the pore cavity (Fig. 5a cartoon). Upon repolarization, however, the bound TPenA blocker obstructs closure of the lower gate and thereby, hinders the SF from closure/inactivation (gate coupling).

Structure (SMILES): COc1ccc(CC(=O)NCc2ccccc2-c2ccccc2C(=O)NCc2ccc(F)cc2F)cc1 [A1899]
- blocker inhibition upon activation by 2-APB (WT TALK-2 channels [1]): strong inhibition
- Residual currents with 10 µM A1899 (WT TALK-2 channels [1]; TALK-2 WT + 1.0 mM 2-APB): 50.53%
- Residual currents with 10 µM A1899 (WT TALK-2 channels [1]; TALK-2 WT): 100.95%
- blocker inhibition of unstimulated TALK-2 channels (WT TALK-2 channels [1]): little inhibition
- Residual currents with 10 µM A1899 ([2]; 10 µM A1899): 41.55%

Structure (SMILES): COc1ccc(CC(=O)NCc2ccccc2-c2ccccc2C(=O)NCCc2cccnc2)cc1 [AVE0118]
- blocker inhibition upon activation by 2-APB (WT TALK-2 channels [1]): strong inhibition
- Residual currents with 50 µM AVE0118 (WT TALK-2 channels [1]; TALK-2 WT + 1.0 mM 2-APB): 12.33%
- Residual currents with 50 µM AVE0118 (WT TALK-2 channels [1]; TALK-2 WT): 96.7%
- blocker inhibition of unstimulated TALK-2 channels (WT TALK-2 channels [1]): little inhibition
- Residual currents with 50 µM AVE0118 ([2]; 50 µM AVE0118): 14.56%

Structure (SMILES): c1ccc(-c2nn[nH]n2)c(Nc2cccc3c2CCCC3)c1 [BL-1249]
- activation of TALK-2 channels by BL-1249 ([3]; 50 µM BL-1249, +40 mV): robust and reversible channel activation
- Fold activation 50 µM BL-1249 ([3]; 50 µM, TALK-2 WT): 72.38 fold

Structure (SMILES): C[N+](C)(C)CCSS(C)(=O)=O.[Cl-] [MTS-ET]
- effect of MTS-ET on WT TALK-2 currents (WT TALK-2 channels [4]): almost no effect; also recorded: insensitive

Structure (SMILES): [Rb+] [Rb^+]
- deactivation time constant τ of tail currents [5]: 17.5 ± 1.7 ms
- Fold Rb+ activation ([3]; TALK-2 WT): 9.12 fold
- deactivation time constant τ of tail currents (WT TALK-2 channels [6]): 3.0 ± 0.2 ms

Structure (SMILES): O=C(NCc1ccccc1-c1ccccc1C(=O)NCCc1ccccn1)OCc1ccccc1 [S9947]
- blocker inhibition upon activation by 2-APB (WT TALK-2 channels [1]): strong inhibition
- Residual currents with 50 µM S9947 (WT TALK-2 channels [1]; TALK-2 WT + 1.0 mM 2-APB): 6.15%
- Residual currents with 50 µM S9947 (WT TALK-2 channels [1]; TALK-2 WT): 98.48%
- blocker inhibition of unstimulated TALK-2 channels (WT TALK-2 channels [1]): little inhibition
- Residual currents with 50 µM S9947 ([2]; 50 µM S9947): 41.47%
